Some test systems named below: SNB-75 CNS; HCC-2998 colon; HL-60(TB) leukemia; SN12C renal; KM12 colon; CCRF-CEM leukemia; IGROV1 ovarian; A498 renal; HOP-92 NSCLC; MCF7 breast; OVCAR-8 ovarian; MALME-3M melanoma; SR leukemia; A549 NSCLC; HOP-18 NSCLC; XF 498 CNS.
Experiment in all cases: NCI anticancer screen, dose series, 48 h

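Following 48 hours of exposure in 96-well plates, responses at five concentrations were used to interpolate endpoints linearly. The concentration for 50% growth inhibition is given as GI50. TGI: concentration producing complete growth inhibition.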 Bounds are passed on as bounds.

Our source for the TGI and GI50 values is PubChem BioAssay (NCI).

With `NS(=O)(=O)c1ccc(N=Nc2nc3[nH]cnc(=S)c3[nH]2)cc1`, the TGI was more than 100 µM in the experiment with SNB-75 CNS; 2.83 µM in the experiment on HCC-2998 colon; 16.7 µM in the experiment on HL-60(TB) leukemia; more than 40.1 µM in the experiment on SN12C renal; more than 100 µM in the experiment on KM12 colon; 4.21 µM with CCRF-CEM leukemia. For the same compound, the TGI was more than 100 µM in the experiment with IGROV1 ovarian; 98.9 µM in the experiment on A498 renal; more than 100 µM in the experiment on HOP-92 NSCLC; more than 100 µM in the experiment with MCF7 breast; more than 100 µM in the experiment with OVCAR-8 ovarian; 36 µM with MALME-3M melanoma. Besides, the TGI in the experiment with SR leukemia was 1.11 µM; with A549 NSCLC, more than 89.6 µM.
Consider `CCN(CC)CCOCC1CCCN2CCCCC12` (configuration not stated), for which the TGI in the experiment with SNB-75 CNS, in the experiment with HCC-2998 colon, in the experiment on HL-60(TB) leukemia, with SN12C renal, in the experiment on KM12 colon and in the experiment on CCRF-CEM leukemia was more than 100 µM in each case. Further, the TGI in the experiment with HOP-92 NSCLC, in the experiment with MCF7 breast, in the experiment with OVCAR-8 ovarian, in the experiment with MALME-3M melanoma and in the experiment with A549 NSCLC was more than 100 µM each time.
Take `C=CCCCCn1c2ccccc2c2c(C)c3c[n+](C)ccc3c(C)c21`: the TGI was 0.921 µM with HL-60(TB) leukemia; 1.6 µM in the experiment with KM12 colon; 2.02 µM in the experiment on CCRF-CEM leukemia; 1.4 µM in the experiment on IGROV1 ovarian; 1.15 µM in the experiment with HOP-18 NSCLC; 4.42 µM with A498 renal. Also, the TGI came out at 0.783 µM with HOP-92 NSCLC; 1.28 µM in the experiment with OVCAR-8 ovarian; 1.16 µM in the experiment on MALME-3M melanoma; 1.1 µM in the experiment on SR leukemia; 4.52 µM in the experiment on A549 NSCLC.
Regarding `CCCC(=O)[O-].CCCC(=O)[O-].N.N.N.N.[Co+3].[O-][Cl+3]([O-])([O-])[O-]`, the TGI in the experiment with SNB-75 CNS, in the experiment on HCC-2998 colon, in the experiment on HL-60(TB) leukemia, in the experiment on SN12C renal, with KM12 colon and in the experiment with CCRF-CEM leukemia was more than 100 µM in each case. For the same compound, the TGI in the experiment with IGROV1 ovarian, with A498 renal, in the experiment with HOP-92 NSCLC, with OVCAR-8 ovarian, in the experiment on MALME-3M melanoma and with A549 NSCLC was more than 100 µM each time.
For the compound `Clc1ccc2c(Cl)nc(-c3ccccc3)nc2c1`, the TGI in the experiment on SNB-75 CNS is more than 100 µM; in the experiment on HCC-2998 colon it was more than 100 µM; with HL-60(TB) leukemia, 45.8 µM; in the experiment on SN12C renal it was more than 100 µM; in the experiment with KM12 colon it was more than 100 µM; with CCRF-CEM leukemia it was more than 100 µM. Moreover, the TGI in the experiment on IGROV1 ovarian was more than 100 µM; in the experiment with A498 renal it was more than 100 µM; in the experiment on XF 498 CNS, 35.6 µM; in the experiment on OVCAR-8 ovarian it was more than 100 µM; in the experiment on MALME-3M melanoma it was more than 100 µM; with SR leukemia, more than 100 µM.
For `COc1cc(O)c2c(c1O)C(=O)c1cc(C)ncc1C2=O`, the TGI with SNB-75 CNS, with HCC-2998 colon, in the experiment with HL-60(TB) leukemia, in the experiment on SN12C renal, in the experiment on KM12 colon and in the experiment with CCRF-CEM leukemia was more than 50 µM in each case. For the same compound, the TGI with IGROV1 ovarian is more than 50 µM; in the experiment with HOP-18 NSCLC, more than 50 µM; with A498 renal, more than 50 µM; in the experiment on XF 498 CNS, more than 50 µM; in the experiment with OVCAR-8 ovarian, more than 50 µM; in the experiment with MALME-3M melanoma it was 27.6 µM. The compound also showed a TGI with A549 NSCLC of more than 50 µM.
`OCCN1CCN(c2nc(Nc3ccc(-c4nc5ccccc5[nH]4)cc3)c3cn[nH]c3n2)CC1`: the GI50 with HCC-2998 colon was 1.74 µM; with A498 renal, 1.92 µM; in the experiment with HOP-92 NSCLC it was 1.41 µM; with MCF7 breast it was 1.59 µM. Also, the TGI with HCC-2998 colon stood at 3.33 µM; in the experiment with A498 renal, 3.44 µM; in the experiment with HOP-92 NSCLC it was 2.91 µM; with MCF7 breast, 3.54 µM.
Regarding `CCCCCCCSCC1OC(n2cnc3c(N)ncnc32)C(O)C1O` (configuration not stated), the TGI in the experiment on SNB-75 CNS was more than 100 µM; in the experiment on HCC-2998 colon, 66.9 µM; with HL-60(TB) leukemia, 27.3 µM; in the experiment with SN12C renal, 65.4 µM; with CCRF-CEM leukemia, more than 100 µM; with IGROV1 ovarian, 41.8 µM. Also, the TGI in the experiment with HOP-18 NSCLC was 68.2 µM; in the experiment with A498 renal it was 32.4 µM; in the experiment on XF 498 CNS, 97.6 µM; in the experiment with HOP-92 NSCLC, 58 µM; in the experiment on OVCAR-8 ovarian it was 54.1 µM; in the experiment on MALME-3M melanoma, more than 100 µM. In addition, the TGI in the experiment with SR leukemia was 43.4 µM; with A549 NSCLC, more than 100 µM.
In the case of `Oc1c2c(c3c4c1N=CC=4CCN=3)C1(C=C(Br)C(O)C(Br)=C1)CCN2` (configuration not stated), the TGI with SNB-75 CNS was 24.5 µM; in the experiment on HCC-2998 colon it was 4.61 µM; with HL-60(TB) leukemia, 2.08 µM; with SN12C renal, 3.44 µM; in the experiment on KM12 colon, 6.16 µM; in the experiment on CCRF-CEM leukemia, 5.79 µM. The TGI turned out to be 2.86 µM with IGROV1 ovarian; 23.5 µM in the experiment with HOP-18 NSCLC; 23.4 µM in the experiment with A498 renal; 8.08 µM in the experiment with HOP-92 NSCLC; 2.73 µM in the experiment with MCF7 breast; 2.91 µM in the experiment with OVCAR-8 ovarian. Further, the TGI in the experiment with A549 NSCLC was 12.5 µM.
In the case of `Cc1n(-c2ccccc2)c2c([n+]1Cc1ccc([N+](=O)[O-])cc1)C(=O)c1ccccc1C2=O`, the TGI in the experiment on SNB-75 CNS worked out at 13.1 µM; with HCC-2998 colon it was 4.2 µM; in the experiment on HL-60(TB) leukemia, 1.35 µM; in the experiment with SN12C renal it was 3.08 µM; in the experiment with KM12 colon it was 6.54 µM; in the experiment on CCRF-CEM leukemia it was 5.46 µM. Besides, the TGI in the experiment on IGROV1 ovarian stood at 2.23 µM; with HOP-18 NSCLC, 17.7 µM; in the experiment with A498 renal, 25.5 µM; in the experiment on HOP-92 NSCLC, 4.3 µM; with MCF7 breast, 2.75 µM; in the experiment on OVCAR-8 ovarian, 6.43 µM. For the same compound, the TGI in the experiment on MALME-3M melanoma was determined as 3.05 µM; in the experiment on SR leukemia, 4.9 µM; with A549 NSCLC, 10.7 µM.
For the compound `Nc1nc(Sc2ccc([N+](=O)[O-])cn2)c2[nH]cnc2n1`, the TGI in the experiment with SNB-75 CNS was 63.9 µM; in the experiment on HCC-2998 colon, 96.8 µM; in the experiment with HL-60(TB) leukemia it was more than 59.4 µM; with SN12C renal, 29.4 µM; with KM12 colon, more than 38.1 µM; in the experiment with CCRF-CEM leukemia it was more than 41.5 µM. Also, the TGI in the experiment with IGROV1 ovarian is 77.9 µM; with A498 renal, 47.8 µM; in the experiment on HOP-92 NSCLC it was 38.7 µM; with MCF7 breast, more than 100 µM; in the experiment with OVCAR-8 ovarian, more than 80.4 µM; in the experiment on MALME-3M melanoma, 36.1 µM. Besides, the TGI was more than 100 µM in the experiment with SR leukemia and 62.1 µM with A549 NSCLC.
